Key:
[1] = test system: CLL cells; experiment: Hoechst 33342 apoptosis assay, CLL cells; type: cell-based, human; settings: for percentage of apoptotic cells: three days
Experimental: (§1) Hoechst 33342 was dissolved in water and frozen at 33 mg/mL at −20° C. One million cells/well were incubated in duplicate or triplicate in 48 well tissue culture plates (Costar, Cambridge, Mass.) with or without drug treatment for […] in 1 mL of culture media. Cells were transferred to 12×75 mm polystyrene Falcon® 2054 FACS tubes (Becton Dickinson Labware, Lincoln Park, N.J.) and incubated for ten minutes at 37° C. with Hoechst 33342 at a final concentration of […]. 23 Cells were stored on ice until analysis on a FACS Vantage flow cytometer (Becton Dickinson, San Jose, Calif.). Hoechst 33342 dye fluorescence was excited with a UV laser and detected using a 450 bandpass filter; Data was analyzed using Cellquest software (Becton Dickinson, San Jose, Calif.).
As a more quantitative analysis of CLL apoptosis, we utilized a flow cytometry method in which apoptotic cells are distinguished both by their reduced size (FSC) and their increased uptake of the lipophilic UV fluorescent dye Hoechst 33342 (FL-4) when the intact, heterogeneous cell population is incubated with a low concentration of the dye (0.25 ug/mL) for 10 minutes at 37° C. Specifically, cells were cultured for 72 hours in media (1), 1uMol/L rolipram (2), 40 uMol/L forskolin (3) or a combination of the two drugs (FIG. 6). The abcissa reflects forward light scatter and the ordinate Hoechst 33342 fluorescence. Apoptotic cells are characterized by reduced forward light scatter and increased Hoechst 33342 fluorescence. Previous reports of cAMP induced lymphoid apoptosis have noted that this form of programmed cell death may take 48 to 72 hours to develop maximally. […] CLL cells were cultured for 72 hours in one mL of media with the indicated concentration of rolipram with (black bars) or without (stippled bars) the addition of 40 uMol/L forskolin.

[2] = test system: IL-2 cultured WMC (>90% CD3+ T cells); experiment: Hoechst 33342 apoptosis assay, IL-2 cultured WMC; type: cell-based, human; settings: 72 hours, comparable treatments
[3] = test system: magnetic bead purified CD19+B cells; experiment: Hoechst 33342 apoptosis assay, CD19+ B cells; type: cell-based, human; settings: 72 hours
Experimental: as §1
This example describes the effect of PDE4 inhibition on normal B and T cells. […] Specifically, one million WMC were cultured with the indicated concentration of rolipram with or without the addition of 40 uMol/L forskolin for 72 hours in the presence of 2 units/mL IL-2. Apoptosis was determined by Hoechst 33342 flow cytometry. […] In contrast, magnetic bead purified CD19+B cells were sensitive to rolipram, although the increment in apoptosis observed was superimposed on a high basal apoptosis rate that has previously been reported in cultured human B cells. Given that crosslinking of cell surface immunoglobulin on resting B cells has been reported to reduce basal and forskolin-induced apoptosis in culture, we also stimulated CD19+ cells with a polyclonal Fab′2 anti-IgM/IgG reagent 30 minutes prior to the addition of the phosphodiesterase inhibitor.

[4] = test system: CLL cells; experiment: cAMP assay (RIA) in CLL cells; type: cell-based, human; settings: 30 uMol/L with forskolin; two hours
Experimental: One million cells in 1 mL were treated for two hours with or without drugs. 0.8 mL of cells were pelleted by spinning at 4,000 rpm (RCF=1,310) in microcentrifuge tube. After discarding 0.7 mL, 400 uL of ethanol was added, vortexed and left on ice for five minutes. Particulate cell debris was removed by centrifugation at 14,000 rpm (RCF=16,000). The supernatant was stored at −20° C. until the day of assay, at which time it was dried in a Speedivac (Savant, Farmingdale, N.Y.) to a volume of 50 uL. After ten-fold dilution in 10 mMol/L Tris pH 8.0, 1 mMol/L EDTA, the cAMP sample was analyzed for cAMP concentration using a cAMP RIA kit (NEN, Boston, Mass.) according to the manufacturer's instructions using the nonacetylated protocol.
In this example, it was determined what role type 1 and type 4 PDE activity might play in the catabolism of cyclic nucleotides in CLL cells. cAMP levels were measured after culturing leukemic cells with varying concentrations of PDE-isoform specific inhibitors, either alone or in conjunction with an activator of adenylate cyclase, the diterpene forskolin. Specifically, one million freshly isolated cells were incubated with the indicated drugs for two hours prior to analysis of cAMP in cell lysates using a radioimmunoassay. The results are shown in FIG. 4 and the data are the mean of three individually assayed culture wells.

[5] = test system: Bal-17 cells; experiment: cAMP assay (RIA) in Bal-17 cells; type: cell-based, murine; settings: basal and forskolin-stimulated (data not shown)
[6] = target: PDE1 enzymes; settings: cited from earlier work
[7] = test system: CLL cells; settings: cited from earlier work
[8] = Pt. 3, Rai IV, Drug Res. Ch, CH, basal 38, 10 uMol/L rolipram, 40 uMol/L forskolin or 100 uMol/L dbcAMP
[9] = Pt. 6, Rai IV, Drug Res. Ch, basal 17 ± 4, 10 uMol/L rolipram, 40 uMol/L forskolin or 100 uMol/L dbcAMP
[10] = Pt. 7, Rai II, Drug Res. Ch, basal 13 ± 2, 10 uMol/L rolipram, 40 uMol/L forskolin or 100 uMol/L dbcAMP
[11] = Pt. 9, Rai IV, Drug Res. Ch, Cy, Fl, basal 4 ± 0, 10 uMol/L rolipram, 40 uMol/L forskolin or 100 uMol/L dbcAMP
[12] = Pt. 11, Rai 0, basal 24 ± 4, 10 uMol/L rolipram, 40 uMol/L forskolin or 100 uMol/L dbcAMP
[13] = Pt. 14 (significant population of cells with prolymphocyte morphology), Rai I, basal 13 ± 0, 10 uMol/L rolipram, 40 uMol/L forskolin or 100 uMol/L dbcAMP

For `CCCC(=O)Nc1ncnc2c1ncn2[C@@H]1O[C@@H]2COP(=O)(O)O[C@H]2[C@H]1OC(=O)CCC` [dbcAMP, dibutyryl cAMP], the “percentage of apoptotic cells relative to control cells” value ([1]; CLL cells, 72 hours, 10 uMol/L rolipram, 40 uMol/L forskolin, dbcAMP greater than or equal to 30 mMol/L) was “increased significantly”, the “percentage of apoptotic cells” value [1, 8] was 71 ± 3% and the “percentage of apoptotic cells” value [1, 9] was 39 ± 4%. The “percentage of apoptotic cells” value [1, 10] was 32 ± 4%, the “percentage of apoptotic cells” value [1, 11] was 46 ± 1% and the “percentage of apoptotic cells” value [1, 12] was 39 ± 2%. For the same compound, the “percentage of apoptotic cells” value ([1]; Pt. 13, Rai 0, basal 2 ± 0, 10 uMol/L rolipram, 40 uMol/L forskolin or 100 uMol/L dbcAMP) was 23 ± 6%, the “percentage of apoptotic cells” value [1, 13] was 22 ± 0% and the “percentage of apoptotic cells relative to control cells” value [2] was “did not significantly increase”. For the same compound, the “percentage of apoptotic cells relative to control cells” value ([3]; anti-Ig stimulated B cells, comparable treatments) was “did not significantly increase” and the “percentage of apoptotic cells relative to control cells” value ([3]; resting B cells, 10 uMol/L rolipram, 40 uMol/L forskolin, dbcAMP greater than or equal to 30 mMol/L) was “increased significantly”.
For `CCOC(=O)C1=C[C@]2(CC)CCCN3CCc4c(n1c1ccccc41)[C@@H]32` [vinpocetine], the CLL cell apoptosis ([1]; 10 or 30 uMol/L) was “underwent apoptosis”, the “time of peak apoptosis” value ([1]; CLL cells (data not shown)) was at most 24 h and the “CLL cell cAMP” value [4] was “not augmented above levels induced by forskolin alone”. The “cAMP levels in Bal-17 cells” value [5] was “reduced both basal and forskolin-stimulated cAMP levels” and the IC50 [6] was 21 µM.
With `C=C[C@@]1(C)CC(=O)[C@]2(O)[C@@]3(C)[C@@H](O)CCC(C)(C)[C@@H]3[C@H](O)[C@H](OC(C)=O)[C@@]2(C)O1` [forskolin] the “percentage of apoptotic cells” value ([1]; Pt. 2, Rai IV, Drug Res. Ch, Cy, basal 18 ± 2, 10 uMol/L rolipram, 40 uMol/L forskolin or 100 uMol/L dbcAMP) was 46%, the “percentage of apoptotic cells” value [1, 8] was 59 ± 0% and the “percentage of apoptotic cells” value [1, 9] was 30 ± 4%. The “percentage of apoptotic cells” value [1, 10] was 32 ± 0%, the “percentage of apoptotic cells” value ([1]; Pt. 8, Rai 0, basal 5, 10 uMol/L rolipram, 40 uMol/L forskolin) was 22% and the “percentage of apoptotic cells” value [1, 11] was 17 ± 4%. The “percentage of apoptotic cells” value ([1]; Pt. 10, Rai I, basal 11, 10 uMol/L rolipram, 40 uMol/L forskolin or 100 uMol/L dbcAMP) was 26 ± 4%, the “percentage of apoptotic cells” value [1, 12] was 40 ± 3% and the “percentage of apoptotic cells” value ([1]; Pt. 12, Rai IV, Drug Res. Ch, Fl, 2C, basal 0 ± 4, 10 uMol/L rolipram, 40 uMol/L forskolin or 100 uMol/L dbcAMP) was 43 ± 1%. For the same compound, the “percentage of apoptotic cells” value [1, 13] was 19 ± 3%.
In the case of `Cn1c(=O)c2[nH]cnc2n(C)c1=O` [Theophylline], the “apoptosis in CLL cells” value [7] is listed as “induces apoptosis”.
